Molecules are shown by their SMILES.

From patent US8563715B2, “Pyrimidine derivative having cell protecting effect and uses thereof” (Zenyaku Kogyo Kabushikikaisha, priority 2008, dated 2013) come the findings set out here.

Experiment [1] has as its system astrocyte/neuron co-culture. The experiment is described as follows: Brain cell damage induced by hydrogen peroxide treatment (LDH assay). The experiment is classed as cell-based. The settings on record: Rattus norvegicus, hydrogen peroxide (250 μM), 24 hours, read-out: 50% inhibition concentration against cell damage in entire co-culture system (EC50 value). How it is done: (§1) The brain was removed from 1 to 2 day old Wistar rats (Charles River) or Sprague-Dawley (IGS) rats (Charles River), and the cerebral cortex including the hippocampus was excised under ice cooling. After this cerebral cortex was minced, it was digested with papain solution (9 U/ml) containing DNase I (30 U/ml) at 37 degrees Celsius for 15 minutes, dispersing the cells. After further carrying out mechanical dispersing by pipetting, it was passed through a cell strainer with a pore size of 70 μm, and a cell suspension was obtained. Cells derived from 1.4 cerebra were seeded on 150 mm tissue culture dish (Iwaki Glass), and primary culture was carried out at 37 degrees Celsius and 5% CO2 using a D-MEM medium (Invitrogen) containing 10% heat-inactivated fetal calf serum (JRH). One day after the start of the culture, the nonadherent cells were removed, and the primary cultured astrocytes were obtained by continuing the culture for 4 to 5 further days. The primary cultured astrocytes were dispersed by trypsin treating, suspended in cryopreservation solution, and cryopreserved.
(§2) After thawing the cryopreserved primary cultured astrocytes, they were seeded on tissue culture plates (Iwaki Glass), and a confluent astrocyte layer was produced by a further 7 days of secondary culture using a D-MEM medium containing 10% heat-inactivated fetal calf serum. Neurons to be used in the co-culture with the astrocyte layer were obtained from fetal rat cerebrum. Briefly, brains were removed from Wistar rats (Charles River) or Sprague-Dawley (IGS) rats (Charles River) of embryonic age 18.5 days, and the cerebral cortex including the hippocampus was excised under ice cooling. After this cerebral cortex was minced, it was digested in papain solution (9 U/ml) containing DNase I (30 U/ml) at 37 degrees Celsius for 15 minutes, dispersing the cells. After further carrying out mechanical dispersing by pipetting, it was passed through a cell strainer with a pore size of 70 μm, and a cell suspension was obtained. This cell suspension was plated at a density of 1.3×10^5 cells/cm^2 on the astrocyte layer, and a co-culture was carried out using D-MEM/F-12 medium (Invitrogen) containing 10% heat-inactivated fetal calf serum and 5% horse serum (Invitrogen). 2 days after the start of the co-culture, cells were treated for 24 hours with 10 μM cytosine arabinoside in order to suppress the excessive cell proliferation of microglia and the like. 8 to 9 days after the start of the co-culture, cells were used for the test. Additionally, using one portion of the cells, immunofluorescent staining and nuclear staining was carried out with astrocyte recognizing antibodies (anti-GFAP) and neuron recognizing antibodies (anti-MAP2), in order to confirm that the present culture system is a co-culture system of astrocytes and neurons.
(§3) An astrocyte/neuron co-culture cultured on a 96 well plate was used in the test. A predetermined concentration of the test substance and hydrogen peroxide (250 μM) was simultaneously added to the cell culture in each well with continuing cultivation, and analysis was done 24 hours after this treatment. Using an LDH Cytotoxicity Detection Kit (Takara Bio), analysis was carried out in accordance with the included instruction manual, and the damage to the entire co-culture system by the hydrogen peroxide treatment and the protective effect (EC 50 value) of the test substance was evaluated. Further, the cell bodies and the neuronal processes of the neurons were observed by microscope, and the neuroprotective effect was evaluated.

Experiment [2] deals with neurons in astrocyte/neuron co-culture. The experiment in a line: Brain cell damage induced by hydrogen peroxide treatment (neuroprotective effect, microscope observation). The conditions noted are these: Rattus norvegicus, hydrogen peroxide (250 μM), 24 hours, read-out: Concentration for complete inhibition of neuronal death. It counts as cell-based. As for the experimental part: as §1, §2, §3

Experiment [3] relates to rat brain homogenate (lipid peroxide production). The experiment in a line: Antioxidant activity test (rat brain homogenate autoxidation test). The conditions noted are these: lipid peroxide production suppression, 2 hours at 37 degrees Celsius, thiobarbituric acid method. It counts as biochemical. As for the experimental part:
The cerebrum was removed from 7 to 11 week old male Wistar rats (Nihon Ikagaku) or male Sprague-Dawley (IGS) rats (Charles River), physiological saline was added, and a 20% brain homogenate was made. 4 μl of test compound dissolved in DMSO was mixed with 200 μl of brain homogenate and 200 μl of PBS (−) (diluted 100 times), incubated for 2 hours at 37 degrees Celsius and shaken at a rate of 160 times per minute, thereby producing a lipid peroxide. After cooling for 5 minutes, the produced lipid peroxide was measured as a thiobarbituric acid reactive substance by using the thiobarbituric acid method. Briefly, 100 μl of 8.1% dodecyl sulfate, 750 μl of 20% acetic acid adjusted to a pH of 3.5, and 750 μl of 0.8% thiobarbituric acid were added, and boiled for 60 minutes, and then cooled. Next, 500 μl of distilled water and 2.5 ml of N-butanol/pyridine (15:1) were added and after 5 minutes of shaking, the supernatant was taken after centrifuging for 10 minutes at 3000 rpm, and the absorbance at 532 nm was measured. The number of examples was 2 examples. Calculation was done of the (absorbance at each concentration/absorbance of a solvent control)×100, and after logit transformation, the lipid peroxide production suppression effect (IC 50 value) was calculated as an indicator of antioxidant activity.

The IC50 is the point on the concentration scale where inhibition reaches its midpoint. A high value points to weaker potency. With `Oc1ccc(N2CCN(c3nc(N4CCOCC4)cc(N4CCOCC4)n3)CC2)cc1` [Compound 30, 2-[4-(4-hydroxyphenyl)piperazin-1-yl]-4,6-dimorpholinopyrimidine], the EC50 in experiment [1] was determined as 3.01 µM. Moreover, the EC100 in experiment [2] worked out at 10 µM. In experiment [3], this molecule came in with an IC50 of 6.84 µM.
On to `c1ccc(N2CCN(c3cc(N4CCOCC4)nc(N4CCN(c5ccccc5)CC4)n3)CC2)cc1` [Compound 57, 2,4-bis(4-phenylpiperazin-1-yl)-6-morpholinopyrimidine], for which the EC50 in experiment [1] worked out at 5.12 µM. In addition, in experiment [2], the EC100 turned out to be 30 µM. Moreover, the IC50 in experiment [3] is 30.5 µM.
Taken in the same sequence, the figures for `Nc1c(N2CCOCC2)nc(N2CCN(c3ccccc3)CC2)nc1N1CCOCC1` [Compound 63, 5-amino-4,6-dimorpholino-2-(4-phenylpiperazin-1-yl)pyrimidine] were 8.3 µM, 30 µM and 0.81 µM.
In the same order, the values of `Nc1c(N2CCOCC2)nc(N2CCC(Cc3ccccc3)CC2)nc1N1CCOCC1` [Compound 66, 5-amino-2-(4-benzylpiperidin-1-yl)-4,6-dimorpholinopyrimidine] are 2.86 µM, 30 µM and 0.82 µM.
`CN(C)c1nc(N2CCC(Cc3ccccc3)CC2)nc(N2CCSCC2)c1N` [Compound 69, 5-amino-2-(4-benzylpiperidin-1-yl)-4-dimethylamino-6-thiomorpholinopyrimidine]: the EC50 in experiment [1] stood at 0.29 µM. Also, in experiment [2], the EC100 is 3 µM. Also, the midpoint of inhibition in experiment [3], the IC50, lay at 1.26 µM.
For `Nc1c(N2CCOCC2)nc(N2CCN(Cc3ccccc3)CC2)nc1N1CCOCC1` [Compound 73, 5-amino-2-(4-benzylpiperazin-1-yl)-4,6-dimorpholinopyrimidine], the EC50 in experiment [1] is 10.6 µM. The molecule further displayed an IC50 in experiment [3] of 0.69 µM.
In the same order, the values of `Nc1c(N2CCOCC2)nc(N2CCN(c3ccccn3)CC2)nc1N1CCOCC1` [Compound 75, 5-amino-4,6-dimorpholino-2-[4-(pyridin-2-yl)-piperazin-1-yl]pyrimidine] are 9.46 µM and 0.67 µM.
As to `Fc1c(N2CCOCC2)nc(N2CCN(c3ccccc3)CC2)nc1N1CCOCC1` [Compound 82, 5-fluoro-4,6-dimorpholino-2-(4-phenylpiperazin-1-yl)pyrimidine], the EC50 in experiment [1] was 0.6 µM. Also, the EC100 in experiment [2] is 3 µM. Also, the IC50 in experiment [3] amounted to 9.2 µM.
In the same order, the values of `Fc1c(N2CCOCC2)nc(N2CCOCC2)nc1N1CCc2ccccc2C1` [Compound 87, 5-fluoro-4-(3,4-dihydro-1H-isoquinolin-2-yl)-2,6-dimorpholinopyrimidine] are 0.68 µM, 3 µM and 5.78 µM.
Taken in the same sequence, the figures for `Fc1c(N2CCOCC2)nc(N2Cc3ccccc3C2)nc1N1CCOCC1` [Compound 89, 5-fluoro-2-(isoindolin-2-yl)-4,6-dimorpholinopyrimidine] were 0.53 µM, 3 µM and 3.48 µM.
Taken in the same sequence, the figures for `CN(C)c1nc(N2CCOCC2)c(F)c(N2CCN(c3ccccn3)CC2)n1` [Compound 91, 2-dimethylamino-5-fluoro-6-morpholino-4-[4-(pyridin-2-yl)piperazin-1-yl]pyrimidine] were 0.88 µM, 10 µM and 5.88 µM.
As for `Fc1c(N2CCOCC2)nc(N2CCOCC2)nc1N1CCNC(c2ccccc2)C1` (stereo not shown) [Compound 94, 5-fluoro-2,4-dimorpholino-6-(3-phenylpiperazin-1-yl)pyrimidine], the EC50 in experiment [1] is 0.68 µM. The EC100 in experiment [2] was 3 µM. In experiment [3], this molecule registered an IC50 of 16 µM.
In the same order, the values of `Cc1ccc(N2CCN(c3nc(N4CCOCC4)nc(N4CCOCC4)c3F)CC2)cc1` [Compound 99, 5-fluoro-4-[4-(4-methylphenyl)piperazin-1-yl]-2,6-dimorpholinopyrimidine] are 0.4 µM, 1 µM and 7.51 µM.
`Cc1ccc(N2CCN(c3nc(N4CCN(C)CC4)nc(N4CCOCC4)c3F)CC2)cc1` [Compound 151, 5-fluoro-4-[4-(4-methylphenyl)piperazin-1-yl]-2-(4-methylpiperazin-1-yl)-6-morpholinopyrimidine]: in experiment [1], the EC50 came out at 0.98 µM. In experiment [3], this molecule came in with an IC50 of 8.41 µM.
As for `CCOc1ccccc1N1CCN(c2nc(N3CCOCC3)c(F)c(N3CCN(C)CC3)n2)CC1` [Compound 190, 2-[4-(2-ethoxyphenyl)piperazin-1-yl]-5-fluoro-4-(4-methylpiperazin-1-yl)-6-morpholinopyrimidine], the EC50 in experiment [1] amounted to 0.34 µM. In addition, in experiment [2], the EC100 turned out to be 3 µM.
Taken in the same sequence, the figures for `Cc1cccc(N2CCN(c3nc(N4CCN(Cc5ccc(N(C)C)cc5)CC4)nc(N4CCOCC4)c3F)CC2)c1C` [Compound 192, 5-fluoro-2-[4-(4-dimethylaminobenzyl)piperazin-1-yl]-4-morpholino-6-[4-(2,3-xylyl)piperazin-1-yl]pyrimidine] were 0.3 µM and 1 µM.
Taken in the same sequence, the figures for `COc1ccc(/C=C/c2nc(NCC(N)=O)c(N)c(N3CCOCC3)n2)cc1` [Compound 206, 5-amino-4-carbamoylmethylamino-2-[2-(4-methoxyphenyl)vinyl]-6-morpholinopyrimidine] were 4.85 µM and 10 µM.
Taken in the same sequence, the figures for `COc1ccc(/C=C/c2nc(NCCN3CCOCC3)c(N)c(N3CCOCC3)n2)cc1` [Compound 207, 5-amino-2-[2-(4-methoxyphenyl)vinyl]-4-morpholino-6-(2-morpholinoethylamino)pyrimidine] were 5.8 µM and 10 µM.
Regarding `CCOC(=O)C1CSCCN1c1nc(/C=C/c2ccc(OC)cc2)nc(N2CCOCC2)c1N` (stereo not shown) [Compound 209, 5-amino-4-(3-ethoxycarbonylthiomorpholin-4-yl)-2-[2-(4-methoxyphenyl)vinyl]-6-morpholinopyrimidine], the EC50 in experiment [1] was 1.48 µM. In experiment [2], the EC100 was 10 µM.
In the same order, the values of `COc1ccc(/C=C/c2nc(N(C)C)c(N)c(N3CCNCC3)n2)cc1` [Compound 210, 5-amino-4-dimethylamino-2-[2-(4-methoxyphenyl)vinyl]-6-(1-piperazinyl)pyrimidine] are 4.07 µM and 10 µM.
In the same order, the values of `COc1ccc(CCc2nc(N3CCOCC3)c(N)c(N3CCN(S(=O)(=O)N(C)C)CC3)n2)cc1` [Compound 214, 5-amino-4-(4-dimethylsulfamoylpiperazin-1-yl)-2-[2-(4-methoxyphenyl)ethyl]-6-morpholinopyrimidine] are 2.26 µM and 10 µM.
In the same order, the values of `COc1ccc(/C=C/c2nc(N3CCOCC3)c(N)c(N3CCN(S(=O)(=O)N(C)C)CC3)n2)cc1` [Compound 215, 5-amino-4-(4-dimethylsulfamoylpiperazin-1-yl)-2-[2-(4-methoxyphenyl)vinyl]-6-morpholinopyrimidine] are 1.61 µM and 10 µM.
